Assay results published in patent US20060063759A1, “Tricyclic steroid hormone nuclear receptor modulators” (priority 2002, published 2006).

Legend:
human MR = molecular target: T1, human MR (Homo sapiens, UniProt P08235); experiment: Mineralocorticoid Receptor Binding Assay ([3H]-aldosterone); details: [3H]-aldosterone binding, human MR expressed in Sf9 cells; read-out: MR Ki
T1 construct: The full length human MR gene is cloned from a human kidney or human brain cDNA library; His tag from the pAcHLT vector (own knowledge); made in house; host or cells: Sf9 insect cells (baculovirus, pAcHLT transfer vector)
T1 sequence (P08235 1-984): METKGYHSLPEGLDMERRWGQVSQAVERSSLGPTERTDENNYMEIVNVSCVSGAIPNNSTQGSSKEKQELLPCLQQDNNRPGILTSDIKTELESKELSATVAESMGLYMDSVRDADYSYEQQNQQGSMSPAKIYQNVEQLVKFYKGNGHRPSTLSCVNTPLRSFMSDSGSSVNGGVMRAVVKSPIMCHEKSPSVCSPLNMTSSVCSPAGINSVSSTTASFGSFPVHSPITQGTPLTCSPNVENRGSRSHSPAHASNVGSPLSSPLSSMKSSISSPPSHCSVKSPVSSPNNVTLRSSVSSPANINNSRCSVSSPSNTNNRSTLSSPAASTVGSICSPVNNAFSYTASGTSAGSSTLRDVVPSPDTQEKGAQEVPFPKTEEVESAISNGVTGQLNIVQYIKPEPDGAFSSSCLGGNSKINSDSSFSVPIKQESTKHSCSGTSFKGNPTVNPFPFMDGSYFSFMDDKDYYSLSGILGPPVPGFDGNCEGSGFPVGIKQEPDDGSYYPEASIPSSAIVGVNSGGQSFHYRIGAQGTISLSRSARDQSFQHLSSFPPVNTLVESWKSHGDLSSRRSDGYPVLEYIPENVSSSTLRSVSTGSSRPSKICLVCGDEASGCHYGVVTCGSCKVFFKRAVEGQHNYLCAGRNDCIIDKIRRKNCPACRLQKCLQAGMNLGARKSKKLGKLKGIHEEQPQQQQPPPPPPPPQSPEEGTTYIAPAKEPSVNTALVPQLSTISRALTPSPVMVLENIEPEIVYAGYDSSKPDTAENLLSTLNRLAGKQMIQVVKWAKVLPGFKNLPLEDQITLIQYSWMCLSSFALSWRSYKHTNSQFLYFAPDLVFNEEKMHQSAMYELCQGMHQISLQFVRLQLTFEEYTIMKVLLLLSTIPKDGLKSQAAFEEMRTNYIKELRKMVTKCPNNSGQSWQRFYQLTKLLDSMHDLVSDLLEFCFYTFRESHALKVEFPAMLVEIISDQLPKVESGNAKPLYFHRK
In short: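 Lysate supernatant of Sf9 cells expressing full-length human MR (20-25 μg protein) was incubated with 0.5 nM [3H]-aldosterone and test compound in molybdate/Tris/phosphate/glycerol buffer, pH 7.5, ~16 h at 4 °C. Bound ligand was filtered and counted by scintillation; IC50 is the concentration halving [3H]-aldosterone binding.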

glucocorticoid receptor = molecular target: T2, glucocorticoid receptor (Homo sapiens, UniProt P04150); experiment: Glucocorticoid Receptor Binding Assay ([3H]-dexamethasone, A549 cell extract); details: [3H]-dexamethasone binding, read-out: GR Ki
T2 construct: containing 50-200 ug of A549 cell extract and 1.86 nM [^3H]-dexamethasone; host or cells: A549 human lung epithelial cells (sonicated cell extract)
T2 sequence (P04150 1-777): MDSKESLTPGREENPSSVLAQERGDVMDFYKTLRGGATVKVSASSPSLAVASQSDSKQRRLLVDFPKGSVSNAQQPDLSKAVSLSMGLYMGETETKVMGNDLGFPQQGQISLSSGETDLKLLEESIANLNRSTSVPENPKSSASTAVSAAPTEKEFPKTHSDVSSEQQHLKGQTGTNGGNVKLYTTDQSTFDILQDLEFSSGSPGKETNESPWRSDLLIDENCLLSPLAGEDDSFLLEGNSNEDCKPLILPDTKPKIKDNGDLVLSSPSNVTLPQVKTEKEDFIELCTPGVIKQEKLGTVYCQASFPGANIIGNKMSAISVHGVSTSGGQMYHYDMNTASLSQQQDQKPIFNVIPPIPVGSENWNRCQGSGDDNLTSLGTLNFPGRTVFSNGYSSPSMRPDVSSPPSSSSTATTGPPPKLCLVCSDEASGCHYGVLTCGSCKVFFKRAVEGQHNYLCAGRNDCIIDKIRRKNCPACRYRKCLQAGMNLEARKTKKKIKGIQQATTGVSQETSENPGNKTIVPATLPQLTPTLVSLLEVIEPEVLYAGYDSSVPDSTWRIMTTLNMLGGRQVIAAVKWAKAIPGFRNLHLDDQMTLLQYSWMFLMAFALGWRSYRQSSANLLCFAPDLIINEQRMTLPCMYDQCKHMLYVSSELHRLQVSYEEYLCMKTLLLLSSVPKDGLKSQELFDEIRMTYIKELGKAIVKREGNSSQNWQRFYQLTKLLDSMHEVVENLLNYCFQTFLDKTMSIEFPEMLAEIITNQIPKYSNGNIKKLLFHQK
In short: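 A549 cell extract (50–200 ug) incubated with 1.86 nM [3H]-dexamethasone and test compound for 16 h at 4 °C in Tris-HCl pH 7.2 buffer with glycerol and molybdate. Unbound radioligand removed by dextran-coated charcoal, then supernatant bound counts measured by scintillation.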

Row | Ki (human MR) [nM] | Ki (glucocorticoid receptor) [nM] | Structure (SMILES)
1 | < 500 | < 1000 | Oc1cccc(/C=C2/c3ccccc3CCc3c2cccc3C(F)F)c1 [Example 380]
2 | < 500 | < 500 | CS(=O)(=O)Nc1cccc(/C=C2/c3ccccc3CCc3c2cccc3C(F)F)c1 [Example 381]
3 | < 500 | < 500 | CS(=O)(=O)Nc1cccc(/C=C2\c3ccccc3CCc3c2cccc3C(F)F)c1 [Example 382]
4 | < 500 | < 500 | CS(=O)(=O)Nc1cccc(C[C@H]2c3ccccc3CCc3cc(F)ccc32)c1 [Example 383]
5 | < 500 | < 500 | Nc1cccc(C=C2c3ccc(F)cc3CCc3cc(F)ccc32)c1 [Example 384]
6 | < 500 | < 1000 | N#CNc1cccc(C=C2c3ccc(F)cc3CCc3cc(F)ccc32)c1 [Example 385]
7 | < 500 | < 500 | COC(=O)c1ccc2c(c1)CCc1ccccc1/C2=C\c1cccc(NS(C)(=O)=O)c1 [Example 386]
8 | < 500 | < 500 | COC(=O)c1ccc2c(c1)CCc1ccccc1/C2=C/c1cccc(NS(C)(=O)=O)c1 [Example 387]
9 | < 500 | < 500 | CSc1ccc2c(c1)CCc1ccccc1/C2=C\c1cccc(NS(C)(=O)=O)c1 [Example 388]
10 | < 500 | < 500 | CSc1ccc2c(c1)CCc1ccccc1/C2=C/c1cccc(NS(C)(=O)=O)c1 [Example 389]
11 | < 500 | < 500 | CS(=O)(=O)Nc1cccc(/C=C2/c3ccccc3CCc3cc(C(F)(F)F)ccc32)c1 [Example 390]
12 | < 500 | < 500 | CS(=O)(=O)Nc1cccc(/C=C2\c3ccccc3CCc3cc(C(F)(F)F)ccc32)c1 [Example 391]
13 | < 500 | < 500 | CS(=O)(=O)Nc1cccc(/C=C2\c3ccccc3CCc3cc(S(C)(=O)=O)ccc32)c1 [Example 392]
14 | < 500 | < 500 | CS(=O)(=O)Nc1cccc(/C=C2/c3ccccc3CCc3cc(S(C)(=O)=O)ccc32)c1 [Example 393]
15 | < 500 | < 500 | Nc1ccc(C=C2c3ccccc3CCc3cc(Cl)ccc32)cc1 [Example 394]
16 | < 500 | < 10000 | CS(=O)(=O)Nc1ccc(C=C2c3ccccc3CCc3cc(Cl)ccc32)cc1 [Example 395]
17 | < 500 | < 500 | COC(=O)Nc1cccc(C=C2c3ccccc3CCc3cc(Cl)ccc32)c1 [Example 396]
18 | < 500 | < 10000 | CN(C)C(=O)Nc1cccc(C=C2c3ccccc3CCc3cc(Cl)ccc32)c1 [Example 397]
19 | < 500 | < 500 | CN(c1cccc(C=C2c3ccccc3CCc3cc(Cl)ccc32)c1)S(C)(=O)=O [Example 398]
20 | < 500 | < 10000 | O=S(=O)(Nc1cccc(C=C2c3ccccc3CCc3cc(Cl)ccc32)c1)c1ccccc1 [Example 399]
21 | < 500 | < 500 | O=C(Nc1cccc(C=C2c3ccccc3CCc3cc(Cl)ccc32)c1)C(F)(F)F [Example 400]
22 | < 500 | < 500 | CS(=O)(=O)Nc1cccc(C=C2c3ccccc3CCc3cc(N)ccc32)c1 [Example 401]
23 | < 500 | < 10000 | CN(C)c1ccc2c(c1)CCc1ccccc1C2=Cc1cccc(NS(C)(=O)=O)c1 [Example 402]

Row | Ki (human MR) [nM] | Ki (glucocorticoid receptor) [nM] | Structure (SMILES)
24 | < 500 | < 500 | CS(=O)(=O)Nc1cccc(C=C2c3ccccc3CCc3c(N)cccc32)c1 [Example 403]
25 | < 500 | < 500 | CN(C)c1cccc2c1CCc1ccccc1C2=Cc1cccc(NS(C)(=O)=O)c1 [Example 404]
26 | < 500 | < 500 | CC(=O)Nc1ccc2c(c1)CCc1ccccc1C2=Cc1cccc(NS(C)(=O)=O)c1 [Example 405]
27 | < 500 | < 500 | CC(=O)Nc1cccc2c1CCc1ccccc1C2=Cc1cccc(NS(C)(=O)=O)c1 [Example 406]
28 | < 500 | < 500 | CS(=O)(=O)Nc1cccc(/C=C2\c3ccccc3CCc3cc(N)ccc32)c1 [Example 407]
29 | < 500 | < 500 | CS(=O)(=O)Nc1cccc(/C=C2/c3ccccc3CCc3cc(N)ccc32)c1 [Example 408]
30 | < 500 | < 500 | CS(=O)(=O)Nc1cccc(/C=C2\c3ccccc3CCc3c(N)cccc32)c1 [Example 409]
31 | < 500 | < 500 | CS(=O)(=O)Nc1cccc(/C=C2/c3ccccc3CCc3c(N)cccc32)c1 [Example 410]
32 | < 500 | < 500 | CS(=O)(=O)Nc1cccc(C=C2c3ccccc3CCc3c2cccc3-c2ccccc2)c1 [Example 411]
33 | < 500 | < 1000 | CS(=O)(=O)Nc1cccc(C=C2c3ccccc3CCc3cc(-c4ccccc4)ccc32)c1 [Example 412]
34 | < 500 | < 500 | O=C(Nc1cccc(/C=C2\c3ccccc3CCc3cc(Cl)ccc32)c1)C(F)(F)F [Example 413]
35 | < 500 | < 500 | O=C(Nc1cccc(/C=C2/c3ccccc3CCc3cc(Cl)ccc32)c1)C(F)(F)F [Example 414]
36 | < 500 | < 500 | CS(=O)(=O)Nc1cccc(/C=C2/c3ccccc3CCc3cc(C(N)=O)ccc32)c1 [Example 415]
37 | < 500 | < 500 | CS(=O)(=O)Nc1cccc(/C=C2\c3ccccc3CCc3cc(C(N)=O)ccc32)c1 [Example 416]
38 | < 500 | < 500 | CS(=O)(=O)Nc1cccc(/C=C2\c3ccccc3CCc3cc(C(=O)O)ccc32)c1 [Example 417]
39 | < 500 | < 1000 | CS(=O)(=O)Nc1cccc(/C=C2/c3ccccc3CCc3cc(C(=O)O)ccc32)c1 [Example 418]
40 | < 500 | < 500 | COc1ccc2c(c1)CCc1cc(C)ccc1C2=Cc1cccc(NS(C)(=O)=O)c1 [Example 419]
41 | < 500 | < 500 | Cc1ccc2c(c1)CCc1cc(F)ccc1C2=Cc1cccc(NS(C)(=O)=O)c1 [Example 420]
42 | < 500 | < 500 | Cc1ccc2c(c1)CCc1cc(F)ccc1/C2=C\c1cccc(NS(C)(=O)=O)c1 [Example 421]
43 | < 500 | < 500 | Cc1ccc2c(c1)CCc1cc(F)ccc1/C2=C/c1cccc(NS(C)(=O)=O)c1 [Example 422]
44 | < 500 | < 500 | COc1ccc2c(c1)CCc1cc(C)ccc1/C2=C\c1cccc(NS(C)(=O)=O)c1 [Example 423]
45 | < 500 | < 500 | COc1ccc2c(c1)CCc1cc(C)ccc1/C2=C/c1cccc(NS(C)(=O)=O)c1 [Example 424]
46 | < 500 | < 10000 | CS(=O)(=O)Nc1cccc(C=C2c3ccccc3CCc3cc(OCCN4CCOCC4)ccc32)c1 [Example 427]
